Data reported in PubChem BioAssay (NCI).
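Following 48 hours of exposure in 96-well plates, responses at five concentrations were used to interpolate endpoints linearly. The concentration for full growth arrest is given as TGI.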

Assays:
Assay in all cases: NCI-60 cell line screen, 48 h
UACC-62 melanoma = tested on: UACC-62 melanoma
SK-MEL-28 melanoma = tested on: SK-MEL-28 melanoma
SW-620 colon = tested on: SW-620 colon
LOX IMVI melanoma = tested on: LOX IMVI melanoma
KM12 colon = tested on: KM12 colon
SF-539 CNS = tested on: SF-539 CNS
SR leukemia = tested on: SR leukemia
NCI/ADR-RES ovarian = tested on: NCI/ADR-RES ovarian
NCI-H23 lung = tested on: NCI-H23 lung
OVCAR-5 ovarian = tested on: OVCAR-5 ovarian
NCI-H460 lung = tested on: NCI-H460 lung
T-47D breast = tested on: T-47D breast
SK-MEL-2 melanoma = tested on: SK-MEL-2 melanoma
SNB-75 CNS = tested on: SNB-75 CNS
K-562 leukemia = tested on: K-562 leukemia
EKVX NSCLC = tested on: EKVX NSCLC
OVCAR-3 ovarian = tested on: OVCAR-3 ovarian
786-0 renal = tested on: 786-0 renal
SN12C renal = tested on: SN12C renal
SK-OV-3 ovarian = tested on: SK-OV-3 ovarian
COLO 205 colon = tested on: COLO 205 colon
HCT-15 colon = tested on: HCT-15 colon
U251 CNS = tested on: U251 CNS
MDA-N = tested on: MDA-N
DU-145 prostate = tested on: DU-145 prostate
PC-3 prostate = tested on: PC-3 prostate
SF-295 CNS = tested on: SF-295 CNS
RPMI-8226 leukemia = tested on: RPMI-8226 leukemia
HL-60(TB) leukemia = tested on: HL-60(TB) leukemia
HCT-116 colon = tested on: HCT-116 colon
SK-MEL-5 melanoma = tested on: SK-MEL-5 melanoma
MALME-3M melanoma = tested on: MALME-3M melanoma
CCRF-CEM leukemia = tested on: CCRF-CEM leukemia
SF-268 CNS = tested on: SF-268 CNS
IGROV1 ovarian = tested on: IGROV1 ovarian
A549 NSCLC = tested on: A549 NSCLC
M14 melanoma = tested on: M14 melanoma
MDA-MB-435 = tested on: MDA-MB-435
TK-10 renal = tested on: TK-10 renal
MCF7 breast = tested on: MCF7 breast
BT-549 breast = tested on: BT-549 breast
UO-31 renal = tested on: UO-31 renal
NCI-H226 lung = tested on: NCI-H226 lung
RXF 393 renal = tested on: RXF 393 renal
MOLT-4 leukemia = tested on: MOLT-4 leukemia
A498 renal = tested on: A498 renal
ACHN renal = tested on: ACHN renal
HT29 colon = tested on: HT29 colon
SNB-19 CNS = tested on: SNB-19 CNS
HOP-62 NSCLC = tested on: HOP-62 NSCLC
CAKI-1 renal = tested on: CAKI-1 renal
MDA-MB-231 breast = tested on: MDA-MB-231 breast
OVCAR-4 ovarian = tested on: OVCAR-4 ovarian
NCI-H522 lung = tested on: NCI-H522 lung
UACC-257 melanoma = tested on: UACC-257 melanoma
HCC-2998 colon = tested on: HCC-2998 colon
OVCAR-8 ovarian = tested on: OVCAR-8 ovarian
HOP-92 NSCLC = tested on: HOP-92 NSCLC

Molecule `Cc1cc(S(=O)(=O)NC2=NCC(C)NN2)c(S)cc1Cl` (stereo unspecified) has a TGI (UACC-62 melanoma) greater than 100 µM, a TGI (SK-MEL-28 melanoma) greater than 100 µM and a TGI (SW-620 colon) greater than 100 µM. It also gave a TGI (LOX IMVI melanoma) of 37.7 µM, a TGI (KM12 colon) greater than 100 µM and a TGI (SF-539 CNS) greater than 100 µM. For the same molecule, the TGI (SR leukemia) was 90.4 µM, the TGI (NCI/ADR-RES ovarian) was greater than 100 µM and the TGI (NCI-H23 lung) was greater than 100 µM. The TGI (OVCAR-5 ovarian) was greater than 100 µM, the TGI (NCI-H460 lung) was greater than 100 µM and the TGI (T-47D breast) was greater than 100 µM. The TGI (SK-MEL-2 melanoma) was 84.3 µM, the TGI (SNB-75 CNS) was greater than 100 µM and the TGI (K-562 leukemia) was 80.9 µM. The TGI (EKVX NSCLC) was greater than 100 µM, the TGI (OVCAR-3 ovarian) was greater than 100 µM and the TGI (786-0 renal) was greater than 100 µM. The TGI (SN12C renal) was greater than 100 µM, the TGI (SK-OV-3 ovarian) was greater than 100 µM and the TGI (COLO 205 colon) was greater than 100 µM. It also gave a TGI (HCT-15 colon) greater than 100 µM, a TGI (U251 CNS) greater than 100 µM and a TGI (MDA-N) greater than 100 µM. It also gave a TGI (DU-145 prostate) greater than 100 µM, a TGI (PC-3 prostate) greater than 100 µM and a TGI (SF-295 CNS) greater than 100 µM. The TGI (RPMI-8226 leukemia) was 61.8 µM, the TGI (HL-60(TB) leukemia) was greater than 100 µM and the TGI (HCT-116 colon) was greater than 100 µM. It also gave a TGI (SK-MEL-5 melanoma) greater than 100 µM, a TGI (MALME-3M melanoma) of 69.2 µM and a TGI (CCRF-CEM leukemia) greater than 100 µM. For the same molecule, the TGI (SF-268 CNS) was 73 µM, the TGI (IGROV1 ovarian) was 53.3 µM and the TGI (A549 NSCLC) was greater than 100 µM. For the same molecule, the TGI (M14 melanoma) was greater than 100 µM, the TGI (MDA-MB-435) was greater than 100 µM and the TGI (TK-10 renal) was greater than 100 µM. It also gave a TGI (MCF7 breast) greater than 100 µM, a TGI (BT-549 breast) greater than 100 µM and a TGI (UO-31 renal) greater than 100 µM. It also gave a TGI (NCI-H226 lung) greater than 100 µM, a TGI (RXF 393 renal) greater than 100 µM and a TGI (MOLT-4 leukemia) greater than 100 µM. The TGI (A498 renal) was 69.8 µM, the TGI (ACHN renal) was greater than 100 µM and the TGI (HT29 colon) was greater than 100 µM. The TGI (SNB-19 CNS) was greater than 100 µM, the TGI (HOP-62 NSCLC) was greater than 100 µM and the TGI (CAKI-1 renal) was greater than 100 µM. For the same molecule, the TGI (MDA-MB-231 breast) was greater than 100 µM, the TGI (OVCAR-4 ovarian) was greater than 100 µM and the TGI (NCI-H522 lung) was 47 µM. For the same molecule, the TGI (UACC-257 melanoma) was greater than 100 µM, the TGI (HCC-2998 colon) was greater than 100 µM and the TGI (OVCAR-8 ovarian) was greater than 100 µM.
In the case of `NC(Cc1ccc(O)c(O)c1)P(=O)(O)O` (stereo unspecified), the TGI (UACC-62 melanoma) was greater than 100 µM, the TGI (SK-MEL-28 melanoma) was greater than 100 µM and the TGI (SW-620 colon) was 43.2 µM. For the same molecule, the TGI (KM12 colon) was greater than 100 µM, the TGI (SF-539 CNS) was greater than 100 µM and the TGI (SR leukemia) was greater than 100 µM. It also gave a TGI (NCI/ADR-RES ovarian) greater than 100 µM, a TGI (NCI-H23 lung) greater than 100 µM and a TGI (OVCAR-5 ovarian) greater than 100 µM. For the same molecule, the TGI (NCI-H460 lung) was greater than 100 µM, the TGI (T-47D breast) was 95.7 µM and the TGI (SK-MEL-2 melanoma) was greater than 100 µM. It also gave a TGI (SNB-75 CNS) greater than 100 µM, a TGI (K-562 leukemia) of 42 µM and a TGI (OVCAR-3 ovarian) greater than 100 µM. It also gave a TGI (786-0 renal) greater than 100 µM, a TGI (SN12C renal) greater than 100 µM and a TGI (HCT-15 colon) greater than 100 µM. It also gave a TGI (U251 CNS) greater than 100 µM, a TGI (MDA-N) greater than 100 µM and a TGI (DU-145 prostate) greater than 100 µM. The TGI (PC-3 prostate) was greater than 100 µM, the TGI (SF-295 CNS) was greater than 100 µM and the TGI (RPMI-8226 leukemia) was greater than 100 µM. It also gave a TGI (HL-60(TB) leukemia) of 45.7 µM, a TGI (HCT-116 colon) greater than 100 µM and a TGI (SK-MEL-5 melanoma) greater than 100 µM. It also gave a TGI (MALME-3M melanoma) greater than 100 µM, a TGI (CCRF-CEM leukemia) of 68.6 µM and a TGI (SF-268 CNS) greater than 100 µM. It also gave a TGI (IGROV1 ovarian) greater than 100 µM, a TGI (A549 NSCLC) greater than 100 µM and a TGI (M14 melanoma) greater than 100 µM. For the same molecule, the TGI (MDA-MB-435) was greater than 100 µM, the TGI (TK-10 renal) was greater than 100 µM and the TGI (BT-549 breast) was greater than 100 µM. The TGI (UO-31 renal) was greater than 100 µM, the TGI (NCI-H226 lung) was greater than 100 µM and the TGI (HOP-92 NSCLC) was greater than 100 µM. For the same molecule, the TGI (RXF 393 renal) was greater than 100 µM, the TGI (MOLT-4 leukemia) was greater than 100 µM and the TGI (A498 renal) was greater than 100 µM. The TGI (ACHN renal) was greater than 100 µM, the TGI (HT29 colon) was greater than 100 µM and the TGI (SNB-19 CNS) was greater than 100 µM. The TGI (CAKI-1 renal) was greater than 100 µM, the TGI (MDA-MB-231 breast) was greater than 100 µM and the TGI (OVCAR-4 ovarian) was greater than 100 µM. For the same molecule, the TGI (NCI-H522 lung) was 20.1 µM, the TGI (UACC-257 melanoma) was greater than 100 µM and the TGI (HCC-2998 colon) was greater than 100 µM. It also gave a TGI (OVCAR-8 ovarian) greater than 100 µM.
Molecule `COc1ccn(CC(=O)c2cc3ccccc3[nH]2)c(=O)n1` has a TGI (UACC-62 melanoma) greater than 100 µM, a TGI (SK-MEL-28 melanoma) greater than 100 µM and a TGI (SW-620 colon) greater than 100 µM. The TGI (LOX IMVI melanoma) was greater than 100 µM, the TGI (KM12 colon) was greater than 100 µM and the TGI (SF-539 CNS) was greater than 100 µM. For the same molecule, the TGI (NCI/ADR-RES ovarian) was greater than 100 µM, the TGI (NCI-H23 lung) was greater than 100 µM and the TGI (OVCAR-5 ovarian) was greater than 100 µM. It also gave a TGI (NCI-H460 lung) greater than 100 µM, a TGI (T-47D breast) greater than 100 µM and a TGI (SK-MEL-2 melanoma) greater than 100 µM. It also gave a TGI (SNB-75 CNS) greater than 100 µM, a TGI (K-562 leukemia) greater than 100 µM and a TGI (EKVX NSCLC) greater than 100 µM. It also gave a TGI (OVCAR-3 ovarian) greater than 100 µM, a TGI (786-0 renal) greater than 100 µM and a TGI (SN12C renal) greater than 100 µM. The TGI (SK-OV-3 ovarian) was greater than 100 µM, the TGI (COLO 205 colon) was greater than 100 µM and the TGI (HCT-15 colon) was greater than 100 µM. For the same molecule, the TGI (U251 CNS) was greater than 100 µM, the TGI (MDA-N) was greater than 100 µM and the TGI (DU-145 prostate) was greater than 100 µM. It also gave a TGI (PC-3 prostate) greater than 100 µM, a TGI (SF-295 CNS) greater than 100 µM and a TGI (RPMI-8226 leukemia) greater than 100 µM. The TGI (HL-60(TB) leukemia) was greater than 100 µM, the TGI (HCT-116 colon) was greater than 100 µM and the TGI (SK-MEL-5 melanoma) was greater than 100 µM. The TGI (MALME-3M melanoma) was greater than 100 µM, the TGI (CCRF-CEM leukemia) was greater than 100 µM and the TGI (SF-268 CNS) was greater than 100 µM. It also gave a TGI (IGROV1 ovarian) greater than 100 µM, a TGI (A549 NSCLC) greater than 100 µM and a TGI (M14 melanoma) greater than 100 µM. It also gave a TGI (MDA-MB-435) greater than 100 µM, a TGI (TK-10 renal) greater than 100 µM and a TGI (MCF7 breast) greater than 100 µM. The TGI (BT-549 breast) was greater than 100 µM, the TGI (UO-31 renal) was greater than 100 µM and the TGI (NCI-H226 lung) was greater than 100 µM. For the same molecule, the TGI (HOP-92 NSCLC) was greater than 100 µM, the TGI (RXF 393 renal) was greater than 100 µM and the TGI (MOLT-4 leukemia) was greater than 100 µM. It also gave a TGI (A498 renal) greater than 100 µM, a TGI (ACHN renal) greater than 100 µM and a TGI (HT29 colon) greater than 100 µM. The TGI (SNB-19 CNS) was greater than 100 µM, the TGI (HOP-62 NSCLC) was greater than 100 µM and the TGI (CAKI-1 renal) was greater than 100 µM. For the same molecule, the TGI (MDA-MB-231 breast) was greater than 100 µM, the TGI (OVCAR-4 ovarian) was greater than 100 µM and the TGI (NCI-H522 lung) was greater than 100 µM. The TGI (UACC-257 melanoma) was greater than 100 µM, the TGI (HCC-2998 colon) was greater than 100 µM and the TGI (OVCAR-8 ovarian) was greater than 100 µM.
